Structures are written as SMILES.

The assay addresses T1, complex I (NADH ubiquinone reductase) (Rattus norvegicus, UniProt A6K8N6+P03889+Q641Y2).
T1 construct: gene Ndufs2; native multi-subunit complex in mitochondria isolated from frozen rat liver; with NADH dehydrogenase [ubiquinone] flavoprotein 1, mitochondrial; NADH dehydrogenase [ubiquinone] flavoprotein 2, mitochondrial; NADH-ubiquinone oxidoreductase 75 kDa subunit, mitochondrial; NADH dehydrogenase [ubiquinone] iron-sulfur protein 3, mitochondrial; NADH dehydrogenase [ubiquinone] iron-sulfur protein 8, mitochondrial; NADH-ubiquinone oxidoreductase chain 2; NADH-ubiquinone oxidoreductase chain 3; NADH-ubiquinone oxidoreductase chain 4; NADH-ubiquinone oxidoreductase chain 4L; NADH-ubiquinone oxidoreductase chain 5; NADH-ubiquinone oxidoreductase chain 6
As to the kind of experiment: NADH oxidation at […] nm, rotenone-sensitive rate, mitochondria from dosed rats. As to conditions: ex vivo after 400 ppm dietary rotenone for 1, 3 or 14 days, no in vitro dose, decylubiquinone, pH 7.2, KCN and antimycin present.

T1 sequence (Q641Y2 34-463): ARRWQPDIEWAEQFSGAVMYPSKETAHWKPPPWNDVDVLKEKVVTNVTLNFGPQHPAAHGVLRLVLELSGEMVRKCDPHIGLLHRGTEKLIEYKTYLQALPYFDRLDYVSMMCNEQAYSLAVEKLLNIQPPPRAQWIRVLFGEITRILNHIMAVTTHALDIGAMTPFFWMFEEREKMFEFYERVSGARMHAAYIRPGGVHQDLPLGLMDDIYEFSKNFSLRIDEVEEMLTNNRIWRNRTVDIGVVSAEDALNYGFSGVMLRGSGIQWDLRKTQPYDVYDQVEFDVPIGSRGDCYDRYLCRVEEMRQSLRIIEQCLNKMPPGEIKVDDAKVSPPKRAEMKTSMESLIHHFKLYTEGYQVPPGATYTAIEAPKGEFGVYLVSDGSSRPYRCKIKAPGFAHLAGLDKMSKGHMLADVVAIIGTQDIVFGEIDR
T1 sequence (A6K8N6 39-218): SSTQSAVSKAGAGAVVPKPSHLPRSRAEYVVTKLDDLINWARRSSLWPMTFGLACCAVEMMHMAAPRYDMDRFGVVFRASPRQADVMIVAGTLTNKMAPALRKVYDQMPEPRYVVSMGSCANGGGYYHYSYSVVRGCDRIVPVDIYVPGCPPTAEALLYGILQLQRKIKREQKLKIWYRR
T1 sequence (P03889 whole entry): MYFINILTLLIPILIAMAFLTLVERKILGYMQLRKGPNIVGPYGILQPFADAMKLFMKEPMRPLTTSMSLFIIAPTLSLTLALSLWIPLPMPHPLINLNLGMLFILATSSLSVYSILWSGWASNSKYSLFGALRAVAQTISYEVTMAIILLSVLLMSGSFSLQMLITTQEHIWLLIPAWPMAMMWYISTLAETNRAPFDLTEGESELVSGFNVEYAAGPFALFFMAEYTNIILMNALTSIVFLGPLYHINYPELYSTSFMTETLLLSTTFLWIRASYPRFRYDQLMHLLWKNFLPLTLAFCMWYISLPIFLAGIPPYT
T1 sequence (Q5XIH3 21-464 partner): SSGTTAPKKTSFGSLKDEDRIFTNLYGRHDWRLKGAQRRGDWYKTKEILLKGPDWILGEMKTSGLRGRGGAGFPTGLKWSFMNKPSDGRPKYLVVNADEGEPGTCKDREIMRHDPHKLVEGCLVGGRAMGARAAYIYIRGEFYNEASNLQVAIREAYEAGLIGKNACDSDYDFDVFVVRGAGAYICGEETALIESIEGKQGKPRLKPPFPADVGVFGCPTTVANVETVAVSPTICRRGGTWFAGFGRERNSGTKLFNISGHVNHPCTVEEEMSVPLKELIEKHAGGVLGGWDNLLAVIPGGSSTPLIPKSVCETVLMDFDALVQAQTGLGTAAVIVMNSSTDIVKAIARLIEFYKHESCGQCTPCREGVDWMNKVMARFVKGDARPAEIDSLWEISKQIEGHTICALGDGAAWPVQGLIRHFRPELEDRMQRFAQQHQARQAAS

On to `C=C(C)[C@H]1Cc2c(ccc3c2O[C@@H]2COc4cc(OC)c(OC)cc4[C@@H]2C3=O)O1` [rotenone], for which the “% decrease of complex I activity vs time-matched control” value was 70–80%.
